The results in this text go back to patent publication US20140004079A1, “IN VIVO DENDRITIC CELL T[…]” (Agency for Science, Technology and Research, priority 2012, published 2014).

Entries after “also recorded” stand apart in the source; their conditions may differ.

Common to all, as to format: cell-based, human
Assay [1] concerns sorted APC populations from chronic HBV patients. Description: Ex vivo antigen presentation assay: sorted APCs activated overnight, co-cultured with HBsAg-specific TCR redirected T cells, IFN-γ Elispot. Particulars: for cross-presentation of circulating HBsAg (T cell activation): mDC, CD14 MN, CD16 MN or B cells of chronic HBV patients, short-term activation, HBsAg-specific TCR transduced T cells. The method, then: Sorted APC populations; CD11c DC, CD141 DC, CD123 pDC, CD14 MN, CD16 MN and CD20 B cells were cultured overnight in media alone or under activating conditions +/−[…] recombinant HBsAg (Kindly provided by DynaVax). Cells were activated with 10 μg/ml polyI:C (TLR-3), 5 μM CpG ODN2216 (TLR-9), 1 μg/ml LPS (TLR-4), 5 μg/ml Imiquimod (TLR-7), 1 μg/ml ssRNA40 (TLR-8) (InvivoGen), 1000 U/ml IFN-α or 1000 U/ml IFN-γ (R&D systems). Following overnight incubation, APC populations were thoroughly washed and transferred to anti-IFN-γ coated Elispot plates and co-cultured with CD8 s183-TCR or s171-TCR redirected T cells at 5:1 E:T ratio (normally 5,000 APCs/well but as low as 1000 CD141 DC/well) for 24 h. APCs pulsed with 5 μg/ml HBs183-91(FLLTRILTI), HBs171-80 (FLGPLLVLQA) or HBc18-27 ([…]) peptide served as positive control for T cell activation. IFN-γ Elispot was performed as described previously in Tan et al 2008, using 5 μg/ml of 1-DIK for capture and 0.5 μg/ml 7B6-1-Biotin plus Streptavidin-ALP for detection (Mabtec) (Tan, A. T, Loggi, E., Boni, C., Chia, A. Gehring, A. J., Sastry, K. S., Goh, V., Fisicaro, P., Andreone, P., Brander, C., et al. 2008. Host ethnicity and virus genotype shape the hepatitis B virus-specific T-cell repertoire. J. Virol 82: 10986-10997). Elispot plates were developed and analyzed using CTL Immunospot analyzer. Cutoff values for positive responses were set according to cumulative data from healthy donors and HLA mismatched chronic HBV responses (data not shown). Wells were considered positive if responses were above 20 spot forming units/50,000 T cells.
APC populations were sorted from 7 HLA-A2+ chronic HBV patients or healthy donors to greater than 98% purity. TCR transduced T cells were then cultured at 5:1 effector:target ratio with each APC population (typically 5,000 APC/well for Elispot and 10,000 APC/well for intracellular cytokine staining) and T cell activation was monitored using IFN-γ intracellular cytokine staining or IFN-γ Elispot. For intracellular cytokine staining, cells were co-cultured overnight in V-bottom 96 well plates in 2 μg/ml brefeldin A. Cells were labeled with viability dye, stained with CD8-Horizon V500 (BD Biosciences) and fixed in cytofix/cytoperm (BD Biosciences). Cells were then stained with IFN-γ-Horizon V450 (BD Biosciences) to monitor T cell activation. As positive control, CD14 MN were pulsed with 5 μg/ml HBs183-91 or HBc18-27 peptide for 1 h and washed. IFN-γ Elispot was performed as described previously using 5 μg/ml of 1-DK1 for capture and 0.5 μg/ml 7B6-1-Biotin plus Streptavidin-ALP for detection (Mabtec). Wells were considered positive if responses were above 20 spot forming units/25,000 T cells. An HLA-A2+ healthy donor was included in each experiment to determine the background for each experiment. HLA-A2− donors were also tested to confirm specificity and restriction of the transduced T cells (data not shown).

For assay [2], the system named is healthy donor CD14 MN. Description: Cross-presentation by healthy donor CD14 MN loaded with HBV antigen at day zero and differentiated to moDC, IFN-γ elispot. The following applies: differentiation alone, antigen captured on day zero. The method, then: (§1) CD14+ MN were isolated from healthy donors and chronic HBV patients by FACs sorting or positive selection using CD14 micobeads (greater than 90% purity; Miltenyi Biothech). Purified monocytes were then cultured in RPMI 1640 supplemented with 10% heat-inactivated FBS, 20 mM HEPES, 0.5 mM sodium pyruvate. 100 U/ml penicillin, 100 μg/ml streptomycin, MeM amino acids, Glutamax, MeM nonessential amino acids, 55 μM 2-mercaptoethanol (Invitrogen). GM-CSF+IL-4 moDC were made by culturing CD14 MN in 50 ng/ml (1500 U/ml) IL-4 and 50 ng/ml (750 U/ml) GM-CSF (R&D systems) for 6 d. GM-CSF+IL-15 (R&D Systems) moDC were made by culturing CD14 MN in 100 ng/ml (1500 U/ml) GM-CSF+200 ng/ml IL-15. Half of the media was removed after 3 d and replaced with complete RPMI containing cytokines. After 6 d of incubation, moDC were stained with CD14-PerCp (Miltenyi Biotech), HLA-DR alexa700 (eBioscience), CD80-FITC (BD Bioscience) and CD86-APC (Biolegend) to confirm differentiation.
(§2) Six day moDC were cultured overnight in media alone or activated with 10 μg/ml polyI:C or 0.1 ug/ml LPS (Invivogen)+50 ng/ml soluble HEK-derived CD40L (R&D Systems). Following overnight incubation, moDC were washed three times with HBSS and co-cultured at 2:1 effector:target ratio (10,000 T cells:5000 moDC) with CD8 HBs183-91T or HBs171-80-specific TCR redirected T cells for IFN-γ elispot. […]

Assay [3] deals with CD14 MN from chronic HBV patients. As to the kind of experiment: Cross-presentation of in vivo captured HBsAg by monocyte-derived DC from chronic HBV patients, IFN-γ elispot. The following applies: moDC activated overnight, s183-TCR and s171-TCR CD8 T cells. How it is done: as §1, §2

With interferon-α [IFN-α], in assay [1], the “cross-presentation of circulating HBsAg (T cell activation)” value is “T cell activation was not observed”. Further, the “activation of HBsAg-specific T cells by activated pDC ex vivo” value in assay [1] (pDC of chronic HBV patients, in vivo captured HBsAg) is “Neither resting pDC nor pDC activated with a panel of TLR ligands and IFN-α activated HBsAg-specific T cells; also recorded: none of these conditions resulted in HBsAg-specific T cell activation”. For the molecule “granulocyte-macrophage colony-stimulating factor [GM-CSF]”, the “cross-presentation of HBV antigen to virus-specific CD8 T cells after differentiation” value in assay [2] (3 d) was “resulted in cross-presentation of HBV antigen”. With “IFN-γ: cytokine, 1000 U/ml for APC activation”, the “cross-presentation of circulating HBsAg (T cell activation)” value in assay [1] is “T cell activation was not observed”. As for “Polyinosinic-polycytidylic acid [polyI:C, reference compound]”, in assay [1] (CD141 DC loaded with rHBsAg and stimulated), the “cross-presentation of exogenously loaded recombinant HBsAg by CD141 DC” value was “efficiently cross-presented recombinant HBsAg”. Besides, the “activation of CD8 T cells by activated CD141 DC directly ex vivo” value in assay [1] (CD141 DC of chronic HBV patients, in vivo captured HBsAg) is “neither non-activated nor polyI:C activated CD141 DC from chronic HBV patients stimulated CDS T cells; also recorded: neither non-activated nor polyI:C activated CD141 DC from chronic HBV patients activated CD8 T cells”. Also, the “effect of moDC activation on T cell response” value in assay [3] was “increase the T cell response”.

B1: IL-32: cytokine, 100 ng/ml IL-32 for 6 d (protein, UniProt P24001 31-234, looked up)
Interleukin-32: AWVSACDTEDTVGHLGPWRDKDPALWCQLCLSSQHQAIERFYDKMQNAESGRGQVMSSLAELEDDFKEGYLETVAAYYEEQHPELTPLLEKERDGLRCRGNRSPVPDVEDPATEEPGESFCDKVMRWFQAMLQRLQTWWHGVLAWVKEKVVALVHAVQALWKQFQSFCCSLSELFMSSFQSYGAPRGDKEELTPQKCSEPQSSK
B1: in assay [2] (6 d), the “cross-presentation of HBV antigen to virus-specific CD8 T cells after differentiation” value is listed as “resulted in cross-presentation of HBV antigen”.
